What was measured:
Format in all cases: in vivo
[1] = tested on: Wheat (cultivar; Apogee); assay: Wheat yield enhancement by foliar spray treatment under high temperature stress; details: for Average fresh weight of young ears: 36° C./32° C. for 7 days, 56th day after seeding, control 1.68
Method: Wheat (cultivar; Apogee) was sown in soil pots (5 seeds/pot) and then cultivated in a growth chamber at a temperature of 18° C. (day)/15° C. (night) and at a day length of 12 hours for 28 days. Plants were thinned to 3 plants/pot. On the 28th day after sowing, the plants were treated by foliar spray application with a solution containing the test compound. On the 2nd day after the spray application the plants were subjected to high temperatures for 7 days in a growth chamber 36° C. (day)/32° C. (night) and a day length of 12 hours. After the stress treatment, the plants were cultivated in a growth chamber at a temperature of 18° C. (day)/15° C. (night) and a day length of 12 hours. On the 56th day after seeding, the total fresh weight of the young ears from the 3 plants in each pot was measured (n=8 replicates).
Wheat seeds (cultivar; Apogee) were sown in soil pots (5 seeds/pot) and then cultivated in a growth chamber at a temperature of 18° C. (day)/15° C. (night) and at a day length of 12 hours for 28 days. The wheat plants on the 28th day after seeding were treated by foliar spray application with a solution containing the Compound 1 at concentrations of 1 ppm to 100 ppm. As an untreated control group, the plants were treated with blank solution without Compound 1. Three seedlings per pot were used for the test. On the 2nd day after the spray application, the plants were treated with high temperature for 7 days in a growth chamber at a temperature of 36° C. (day)/32° C. (night) and a day length of 12 hours. After the stress treatment, the plants were cultivated in a growth chamber at a temperature of 18° C. (day)/15° C. (night) and a day length of 12 hours. On the 56th day after seeding, total fresh weight of young seed heads from 3 plants in each pot were measured for 8 replicates of each treatment.

[2] = tested on: Rice (cultivar; Nipponbare); assay: Rice growth enhancement by hydroponic treatment under drought stress
Method: Germinated rice seeds (cultivar; Nipponbare) were cultivated in 2-fold diluted Kimura B hydroponic solution in a growth chamber at a temperature of 28° C. (day)/23° C. (night) and a day length of 12 hours for 14 days. Drought stress was provided by withdrawal of the hydroponic solution from the culture tube for 2 days in a growth chamber at a temperature of 28° C. (day)/23° C. (night) and a day length of 12 hours. After the drought treatment, plants were cultivated in 2-fold diluted Hoagland's hydroponic solution in a growth chamber at a temperature of 28° C. (day)/23° C. (night)) and a day length of 12 hours for 14 days. Then the total fresh weight of the shoots of 5 plants was measured for 3 replicates.
Germinated rice seeds (cultivar; Nipponbare) were cultivated in 2-fold diluted Kimura B hydroponic solution including 1 ppm of the Compound 1 and 0.01% dimethyl sulfoxide in a growth chamber at a temperature of 28° C. (day)/23° C. (night)) and a day length of 12 hours for 14 days. As an untreated control group, the plants were cultivated in the hydroponic solution without Compound 1.
Drought stress was provided by withdrawal of the hydroponic solution from the culture tube for 2 days in a growth chamber at a temperature of 28° C. (day)/23° C. (night) and a day length of 12 hours. After the drought treatment, the treated plants were cultivated in 2-fold diluted Hoagland's hydroponic solution in a growth chamber at a temperature of 28° C. (day)/23° C. (night) and a day length of 12 hours for 14 days, and then total fresh weight of the shoots of 5 plants was examined for 3 replicates.

[3] = tested on: Rice (cultivar; Nipponbare); assay: Rice growth enhancement by seed treatment under low temperature stress; design: Average weight of the shoots: unit not given here; details: for Average weight of the shoots: 4° C. for 6 days, 27th day, control 15.4
Method: Rice seeds (cultivar; Nipponbare) were treated with the Compound 1 at dose rates of 0.5 gram to 50 grams per 100 kilogram seeds. Treated rice seeds were sown and cultivated in 2-fold diluted Kimura B hydroponic solution (Plant Science 119:39-47 (1996) in a growth chamber at a temperature of 28° C. (day)/23° C. (night) and a day length of 12 hours for 10 days.
Following hydroponic cultivation for 10 days the plants were exposed to low temperature stress at 4° C. for 6 days at a day length of 12 hours in a growth chamber. After the low temperature stress treatment, the plants were transferred to 4-fold diluted Hoagland's hydroponic solution (California Agricultural Experiment Station 1950 Circular 347 pp. 34) and cultivated for […] at a temperature of 28° C. and a day length of 12 hours. On the 27th day of the sequential hydroponic cultivation, each fresh shoot weight of the plant was measured for 4 replicates.

[4] = tested on: mungbean; assay: Mungbean pouch assay: growth of primary root and shoot; details: for Shoot Length / Root Length: 4 days after sowing in growth pouches; for Shoot Length: control 4.8; for Root Length: control 8.8
Method: Seeds were placed in germination pouches consisting of germination paper as an insert in a gas-permeable 16×14 cm plastic pouch (CYG Pouch; Mega International, St. Paul, Minn.). In pouch solution evaluation, S-Benzylthiouracil compounds or their salts were dissolved in a small volume of DMSO and added to sterile water with a maximum of 0.5% v/v DMSO at final dilution. The S-Benzylthiouracil solution was subsequently pipetted into the growth pouch, followed by the addition of seeds of the crop being tested. The pouches were arranged in a randomized complete block design in growth racks and placed in 19-liter polycarbonate food storage containers (Rubbermaid Commercial Products, Winchester, Va.). The sealed containers were held in an upright growth cabinet maintained at 25 C with a 12 hour light: 12 hour dark photoperiod. For rice, plants were harvested at 6 d, while in mungbean and corn, the plants were harvested at 4 d post sowing. Measurements were performed on the primary root and shoot of each seedling. The growth of the primary root of mungbean was examined in the pouch assay system. The results of the testing, presented as percent change in root length across all the free S-Benzylthiouracil compounds is shown below. The following S-Benzylthiouracil compounds have benzyl substitutions as defined in Table 11 below.

Oc1ccnc(SCc2cccc(F)c2)n1 [Compound 1, S-(3-Fluorobenzyl)-2-thiouracil]
Average fresh weight of young seed heads versus untreated controls, in words ([1]; 1 ppm to 100 ppm foliar spray, high temperature stress): larger than those of the untreated controls
Average fresh weight of young ears ([1]; foliar spray 1 ppm): 1.71 grams/3 plants
Percent (untreated control = 100) ([1]; foliar spray 1 ppm, high temperature stress): 105%
Average fresh weight of young ears ([1]; foliar spray 10 ppm): 1.70 grams/3 plants
Percent (untreated control = 100) ([1]; foliar spray 10 ppm, high temperature stress): 104%
Average fresh weight of young ears ([1]; foliar spray 100 ppm): 1.87 grams/3 plants
Percent (untreated control = 100) ([1]; foliar spray 100 ppm, high temperature stress): 115%
Percent (shoot weight, untreated control = 100) ([2]; 1 ppm in hydroponic solution, drought stress): 112%
Average weight of the shoots ([2]; 1 ppm in hydroponic solution, drought stress 2 days, control 0.43): 0.48 gram/5 plants
Average shoot weight versus untreated control, in words ([2]; 1 ppm, drought stress): larger than that of the untreated control
Average weight of the shoots ([3]; 0.5 grams/100-kg seeds): 19.7
Percent (shoot weight, untreated control = 100) ([3]; 0.5 grams/100-kg seeds, low temperature stress): 128%
Average weight of the shoots ([3]; 5 grams/100-kg seeds): 39.8
Percent (shoot weight, untreated control = 100) ([3]; 5 grams/100-kg seeds, low temperature stress): 258%
Average weight of the shoots ([3]; 50 grams/100-kg seeds): 34.8
Percent (shoot weight, untreated control = 100) ([3]; 50 grams/100-kg seeds, low temperature stress): 226%
Average fresh shoot weight versus untreated control, in words ([3]; across 0.5 to 50 grams per 100 kilogram seeds, low temperature stress): larger than that of the untreated control
Shoot Length ([4]; 1 ppm): 5.5 cm
Root Length ([4]; 1 ppm): 9.9 cm
Percent Change in Primary Root Length of Mungbean ([4]; 10 ppm (10 mg/L), benzyl ring substitutions): 10.4%
Shoot Length ([4]; 10 ppm): 5.2 cm
Root Length ([4]; 10 ppm): 10.6 cm
Shoot Length ([4]; 25 ppm): 4.7 cm
Root Length ([4]; 25 ppm): 9.5 cm
Shoot Length ([4]; 50 ppm): 3.9 cm
Root Length ([4]; 50 ppm): 5.8 cm
change in vivo at 10 ppm ([4]; 96 h, 10 ppm (10 mg/L), benzyl ring substitutions, read-out: Percent Change in Primary Root Length of Mungbean): 10.4%
Effect on mungbean root (and shoot) growth, in words ([4]; mungbean pouch assay): only a moderate increase in root growth
